Measured values as given in the supplement of paper PMC10307832.

What was measured:
Experiment in all cases: relative viability (nuclei count vs DMSO), 5 days (fraction); higher = more cells survive
[1] = compound: C1=CC=C(C(=C1)C2=CC=C(C=C2)C3=CSC4=C3C(=C(C(=O)N4)C#N)O)O + CC1(C)CCC(c2ccc(Cl)cc2)=C(CN2CCN(c3ccc(C(=O)NS(=O)(=O)c4ccc(N[C@H](CCN5CCOCC5)CSc5ccccc5)c(S(=O)(=O)C(F)(F)F)c4)cc3)CC2)C1 [Navitoclax] (partner 0.5 µM)
Outline: (§1)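 After 5 days of treatment, lung cancer cells in 1536-well plates were fixed and stained in a single step (final 0.05% Triton X-100, 1% formaldehyde, 1 ug/ml Hoechst) and their nuclei counted on 4× images. Treatment had been applied by pin tool the day after seeding as one drug alone or as a fixed anchor-drug dose with five library-drug doses (not always all listed) in √10 steps. Relative viability is the nuclei count of treated wells divided by that of vehicle wells, and values are medians of duplicate plates.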

TGX 221 + OSI-027 = compound: CC1=CN2C(=O)C=C(N=C2C(=C1)C(C)NC3=CC=CC=C3)N4CCOCC4 [TGX 221] + COc1cccc2cc(-c3nc([C@H]4CC[C@H](C(=O)O)CC4)n4ncnc(N)c34)[nH]c12 [OSI-027] (partner 0.5 µM)
Outline: as §1

[2] = compound: O=C(CCCCCCNC(=O)c1cnc(N(c2ccccc2)c2ccccc2)nc1)NO [Ricolinostat] + C[C@]1(O)C[C@@H](c2nc(-c3ccc4ccc(-c5ccccc5)nc4c3)c3c(N)nccn32)C1 [Linsitinib] (partner 1 µM)
Outline: as §1

[3] = compound: O=C(CCCCCCNC(=O)c1cnc(N(c2ccccc2)c2ccccc2)nc1)NO [Ricolinostat] + CC(=O)Nc1cccc(-n2c(=O)n(C3CC3)c(=O)c3c(Nc4ccc(I)cc4F)n(C)c(=O)c(C)c32)c1 [Trametinib] (partner 0.02 µM)
Outline: as §1

Cell Line | relative viability ([1]; first compound 0.08 µM) | relative viability ([1]; first compound 0.253 µM) | relative viability ([1]; first compound 0.8 µM) | relative viability ([1]; first compound 2.53 µM) | relative viability ([1]; first compound 8 µM) | relative viability (TGX 221 + OSI-027; first compound 0.08 µM) | relative viability (TGX 221 + OSI-027; first compound 0.253 µM) | relative viability (TGX 221 + OSI-027; first compound 0.8 µM) | relative viability (TGX 221 + OSI-027; first compound 2.53 µM) | relative viability (TGX 221 + OSI-027; first compound 8 µM) | relative viability ([2]; first compound 0.08 µM) | relative viability ([2]; first compound 0.253 µM) | relative viability ([2]; first compound 0.8 µM) | relative viability ([2]; first compound 2.53 µM) | relative viability ([3]; first compound 0.08 µM) | relative viability ([3]; first compound 0.253 µM) | relative viability ([3]; first compound 0.8 µM) | relative viability ([3]; first compound 2.53 µM)
NCI-H23 | 0.883 | 0.746 | 1 | 0.754 | 0.468 | 0.506 | 0.613 | 0.594 | 0.456 | 0.517 | 0.476 | 0.625 | 0.59 | 0.514 | 0.445 | 0.414 | 0.428 | 0.406
NCI-H322M | 1.35 | 1.24 | 1.03 | 1.32 | 1.09 | 0.541 | 0.515 | 0.551 | 0.507 | 0.567 | – | 0.865 | 1.01 | 0.968 | 0.431 | 0.539 | 0.611 | 0.564
NCI-H358 | – | – | – | – | – | 0.716 | 0.719 | 0.756 | 0.739 | 0.583 | 0.513 | 0.782 | 0.808 | 0.763 | 0.125 | 0.135 | 0.173 | 0.176
NCI-H522 | – | – | – | – | – | 0.606 | 0.739 | 0.704 | 0.789 | 0.641 | – | – | – | – | 0.742 | 0.711 | 0.769 | 0.832
NCI-H650 | – | – | – | – | – | 0.519 | 0.515 | 0.445 | 0.527 | 0.504 | – | 0.853 | 0.563 | 0.439 | 0.853 | 0.908 | 0.909 | 0.874
NCI-H661 | – | – | – | – | – | 0.748 | 0.695 | 0.689 | 0.673 | 0.706 | – | 0.53 | 0.792 | 0.779 | 0.498 | 0.569 | 0.592 | 0.568
NCI-H1299 | 1.12 | 1.02 | 1.04 | 1.1 | 1.07 | – | – | – | – | – | 0.984 | 0.898 | 0.959 | 0.74 | – | – | – | –
NCI-H1563 | – | – | – | – | – | 0.796 | 0.653 | 0.69 | 0.754 | 0.633 | 1.19 | 1.12 | 1.08 | 0.982 | – | – | – | –
NCI-H1623 | – | – | – | – | – | 0.44 | 0.402 | 0.423 | 0.389 | 0.477 | – | – | – | – | – | – | – | –
NCI-H1648 | – | – | – | – | – | 0.268 | – | 0.256 | 0.237 | 0.254 | – | – | – | – | – | 0.512 | 0.489 | 0.519
NCI-H1650 | – | 1.25 | 1.23 | 1.15 | 0.865 | 0.648 | 0.55 | 0.737 | 0.661 | 0.529 | – | – | – | – | 0.791 | 0.583 | 0.525 | 0.43
NCI-H1703 | 0.989 | 1.04 | 1.2 | 0.93 | 0.962 | – | – | – | – | – | – | 0.669 | 0.774 | 0.956 | – | – | – | –
NCI-H2170 | 0.616 | 0.683 | 0.601 | 0.561 | 0.465 | 0.717 | 0.737 | 0.681 | 0.66 | 0.712 | – | – | – | – | 0.921 | 0.879 | 0.985 | 0.973
NCI-H2342 | – | – | – | – | – | 0.544 | 0.655 | 0.613 | 0.631 | 0.602 | – | – | – | – | 0.636 | 0.807 | 0.831 | 0.78
SW 900 | – | – | – | – | – | 0.609 | 0.482 | 0.449 | 0.429 | 0.713 | – | – | – | – | 0.659 | 0.905 | 0.954 | 0.609
